Experimental data as given in patent publication US20070270591A1, “Iron (II) amino acid chelates with reducing agents attached thereto” (priority 2006, published 2007).

Details: no method given; for absorption compared with ferrous sulfate: comparison with ferrous sulfate

Row | Compound | absorption relative to ferric trisglycinate (absorbed x times better) (comparison with ferric trisglycinate) [times] | absorption compared with ferrous sulfate
1 | NCC(=O)[O-].NCC(=O)[O-].[Fe+2] [Ferrous bisglycinate] | 2.3 | better than ferrous sulfate
2 | NCC(=O)O.NCC(=O)O.NCC(=O)O.[Fe] [ferric trisglycinate] | – | better than ferrous sulfate
